Key:
[1] = test system: Y537S tumors (TYS cell line); assay: TYS-luc orthotopic tumor model, SERK-F6 i.p. and oral; format: in vivo, mouse
Description: (§1) FIG. 41. SERK-F6 eradicates mutant ERα primary and metastatic breast cancer. a-c, TYS-luc. orthotopic tumors were established in NSG ovariectomized mice (no E2 pellet, 60 days to establish) and dosed daily as indicated (n=5-6). b, representative examples of bioluminescence images of SERK-F6 treated mice (7 days). d,e, TDG-luc. orthotopic tumors were established in NSG ovariectomized mice (no E2 pellet, 120 days to establish) and dosed daily as indicated (n=4-5). e, Bioluminescence image of SERK-F6 treated mouse with TDG-luc. tumor burden after 7 days. f, MYS-luc. orthotopic tumors were established in NSG ovariectomized mice (no E2 pellet, 45 days to establish) and dosed daily as indicated (n=4-5). g, MDG-luc. orthotopic tumors were established in NSG ovariectomized mice (no E2 pellet, 45 days to establish) and dosed daily as indicated (n=4-5). h, Metastatic model with MDG-luc. cells injected into the tail-vein of NSG ovariectomized mice (no E2 pellet, 1.5 months to establish) and mice were dosed daily as indicated (n=4-5).
SERK-F6 treatment was again tolerated (FIG. 42E) at higher doses and enough to eradicate tumors (FIG. 42F).

ERα cell lines = assay: 24-hour crystal violet assay and long-term cell culturing; format: cell-based, human; conditions: 24-hour crystal violet assay and long-term culture
Protocol: FIG. 36. Discovery of SERK-F6 (also known as, C(−)-105, (−)-105, (R)-105, (−)-1, or (R)-1), a compound that kills ERα-positive cancer cells. a, Chemical structures of BHPI and racemic compound 1 (i.e. (±)-1), and their cytotoxic activity on T47D breast cancer cells after 24-hour incubations with concentrations as indicated in nM. Cells were stained with annexin V-FITC and PI dyes prior to analysis via flow cytometry. […] Cells were incubated with SERK-F6 or positive control, Raptinal, for 24 hours and then stained with annexin V-FITC and PI dyes and analyzed via flow cytometry. Error bars represent S.E.M of 3 independent replicates. c, IC50 values of SERK-F6 after 24-hour incubation against a panel of cancer cell lines grouped by their reported ERα status. Cell viability was measured by Alamar blue fluorescence and set relative to a vehicle control and a quantitative dead control treated with Raptinal. Error bars represent S.E.M of 3 independent experiments. d, Crystal violet staining of T47D cells after 24-hour incubations with compounds and concentrations as indicated. Image is representative of 2 independent experiments. e,f, Long-term cell culture experiment with T47D, TDG, and TYS cells. […] Cell number was determined by MTS. […]
An important aspect for cytotoxic therapy is the ability to quantitatively kill a cell population. […]

MCF-7 cells = assay: Alamar blue fluorescence 24-hour cell death assay, MCF-7; format: cell-based, human; conditions: MCF7, 24 hour incubation, Alamar Blue (FIG. 4)
Protocol: ALAMAR BLUE/RAPTINAL ASSAY: Live cells maintain a reducing environment. The non-fluorescent cell permeable ingredient of Alamar Blue® (resazurin) is taken up by cells. In living cells, it is reduced to the fluorescent compound resorufin. Using a standard curve of cell number versus fluorescence the number of live cells in a test sample can be determined. At high concentrations raptinal kills 100% of cells. The vehicle in which the test compound is dissolved is not toxic. Thus, after subtracting the blank for medium alone, the fluorescence reading for vehicle corresponds to 100% viable cells and the signal for raptinal corresponds to 0% viable cells. […]
ALAMAR BLUE RAPTINAL ASSAYS: Cells were plated at 4,000-10,000 cells/well (96 well plate), usually in 50 μl of medium. […] After 24 hours Alamar Blue reagent was added and fluorescence in the wells was read (BMG PheraStar or Molecular Devices Spectra Max M3 Microplate Reader). % relative death was determined by setting the reading for raptinal-treated cells to 100% dead cells and the reading for vehicle-treated cells to 0% dead cells.
Preparative gram-scale chiral separation of (±)-1 yields enantiopure (R)-1 and (S)-1 with opposite optical rotations (Scheme 5). […] Values were obtained after 24-hour incubation utilizing Alamar blue fluorescence assay normalized to live and death controls (vehicle and raptinal treated). […]

[2] = test system: sp-XBP1 mRNA in T47D-luciferase cells; assay: Induction of spliced XBP-1 mRNA (qRT-PCR); format: cell-based, human; conditions: 100 nM
Protocol: ERα positive T47D-luciferase, human breast cancer cells, were maintained for the indicated times in vehicle (Ctl, Control), 100 nM BHPI or 100 nM (−)-105. At the indicated times RNA was isolated and levels of sp-XBP1 mRNA quantitated by qRT-PCR. (n=3±SEM). […] Increased sp-XBP1 mRNA is a widely used marker for unfolded protein response (UPR) activation.

[3] = test system: D538G mutant tumors (TDG cell line); assay: TDG-luc orthotopic tumor model; format: in vivo, mouse
Description: as §1
FIG. 4A illustrates how IC50's for cell death were determined. 4B tests the ability BHPI, (−)-105, and 01-15 to kill. […] Large orthotopic breast tumors of TYD-Luc cells (T47DERαD538G-luciferase human breast cancer cells) were allowed to form for 4 months in immune suppressed NSG mice. […]

SMILES: O=C1Nc2c(C(F)(F)F)cccc2C1(c1ccc(O)cc1)c1ccc(OC(F)(F)F)cc1 (single isomer, unassigned; (-)) [(−)-105, 3-(4-hydroxyphenyl)-3-(4-(trifluoromethoxy)phenyl)-7-(trifluoromethyl)indolin-2-one]
- tumor regrowth at sub-therapeutic dose ([1]; 10 mg/kg oral): tumors did regrow
- tumor regrowth upon treatment cessation ([1]; after treatment cessation): tumors did not regrow
- effect on Y537S tumors ([1]; dose-dependent, i.p. and oral administration): eradicates Y537S tumors
- quantitative killing of ERα cell lines (ERα cell lines): quantitatively kills
- ability to kill compared with BHPI and 01-15 (MCF-7 cells): superior to BHPI and 01-15
- UPR activation, induction of sp-XBP1 mRNA [2]: much stronger UPR hyper-activator and inducer of sp-XBP1 than BHPI
- efficacy when administered orally ([3]; 40 mg/kg oral gavage, 3 days): effective when administered orally
- effect on D538G mutant tumors ([3]; mouse, in vivo): destruction of D538G mutant tumors
